According to patent US5141627A, “Chelators whose affinity for calcium ion is increased by illumination” (The Regents of the University of California, priority 1989, dated 1992):
Read-outs that look alike come from different tables or passages of the source.

Key:
[1] = Mg2+ affinity in Mg/EGTA buffers; assay type: binding; conditions: 0.1-0.15M ionic strength, pH 7.0-7.4, 20-23° C.
Protocol: Ca^2+ -binding constants for chelators before and after photolysis were determined by monitoring UV spectra during titration of EGTA or HEEDTA buffers to varying free Ca^2+ levels.
Free [Mg^2+ ] was likewise controlled by Mg/EGTA buffers, assuming an apparent dissociation constant for the Mg.EGTA complex (including its monoprotonated form) of 6 mM at pH 7.60 in 0.1M ionic strength; see R. Y. Tsien, et al. (1986) and A. E. Martell, et al. (1974).

[2] = Flash photolysis kinetics of carboxylic acid formation (H+ release, cresol red); assay type: physicochemical; conditions: pH 8.0, 20° C.; for τ, time constant of phenylacetate formation and H+ release after flash photolysis, free: zero [Ca2+]
Source text: When a diazoketone is photolyzed in aqueous solution the major ultimate product is a carboxylic acid. […] Product formation is thus accompanied by proton release generated (Compound 3c, Scheme I). Product formation is thus accompanied by proton release which is readily monitored spectroscopically if a suitable acid-base indicator is used. Cresol red (pKa 8.2) is chosen to monitor proton release following flash photolysis of the diazo compounds in aqueous solutions adjusted to pH 8. […] The absorbance of cresol red at 572 nm decreases with decreasing pH. As the carboxylic acid product, 3c, is generated, the solution acidifies and the transmittance of the sample is expected to rise. […] The chemical structure of the photo-labile chromophore in diazo-3 is essentially identical to that in diazo-2 (FIG. 6, Scheme IV). Correspondingly, flash photolysis of diazo-3 under identical conditions yield experimental traces which were qualitatively the same as those obtained for diazo-2. In Table I is presented the characteristic time constants for carboxylic acid formation following flash photolysis of diazo-2 and diazo-3. Flash photolysis of Ca^2+ -bound diazo-2 produced the carboxylic acid with a characteristic time of 134 μs. The time slowed to 433 μs when Ca^2+ -free diazo-2 was photolyzed.
Diazo-2 was dissolved at 70 μM concentration in 100 mM KCl, 40 μM H4. BAPTA, and enough cresol red to yield OD572 =0.1 after the solution has been adjusted to pH 8. Transmitted light intensity at 572 nm was monitored using an HG-Xe.arc lamp, a monochromator, a photo multiplier and a Biomation transient recorder. Each small division of the ordinate corresponds to 0.002 absorbance unit. The small upward spike at time zero is an optical artifact from the xenon flash lamp. The solid trace is from the sample containing diazo-2. For comparison, the dotted trace is from a photochemically inert sample containing cresol red in 100 mM KCl at pH about 8.
Kinetics of the conversion of diazo-2 and diazo-3 to the carboxylic acid products and the kinetics of Ca^2+ binding by photolyzed diazo-2 were measured by flash photolysis and pH monitoring. The experiments were done in a Dialog apparatus (Garching, FRG) normally used for temperature jumps. The xenon flash lamp was a Model 6100SP7 (Photochemical Research Associates, London, Ontario, Canada) modified to give a light pulse with a full width at half maximum of 85 μs. The output of the xenon lamp was passed through a UG-2 filter to yield broad-band UV radiation in the 330-390 range. Since neither the flash lamp nor the kinetic spectrometer was optimized for light energy, the response amplitudes achieved in the experiments are far from those attainable during a biological experiment. […]

[3] = after photolysis, read-out: Kd (Mg2+), after photolysis

Kd [1, 3] [mM] | Kd ([1]; before photolysis, read-out: Kd (Mg2+), before photolysis) [mM] | Compound | τ, time constant of phenylacetate formation and H+ release after flash photolysis, +Ca2+ ([2]; saturating [Ca2+], additional fast alkalinization component present) [μs] | τ, time constant of phenylacetate formation and H+ release after flash photolysis, free [2] [μs] | τ, time constant of phenylacetate formation and H+ release after flash photolysis, free ([2]; listed as Diazo-3) [μs]
3.4 | 5.5 | Cc1ccc(N(CC(=O)O)CC(=O)O)c(OCCOc2cc(C(=O)C=[N+]=[N-])ccc2N(CC(=O)O)CC(=O)O)c1 [diazo-2, 1-(2-bis(carboxymethyl)amino-5-methyl) phenoxy-2-(2-bis(carboxymethyl)amino-5-(diazoacetyl)phenoxy) ethane] | 134 | 433 | –
~20 | – | COc1cc(C(=O)C=[N+]=[N-])ccc1N(CC(=O)O)CC(=O)O [diazo-3, 2-methoxy-4-(diazoacetyl)aniline-N, N-diacetic acid] | – | 239 | 238
